Where a SMILES comes first, the peptide text is derived from it. Bridges are numbered along the chain shown (N, C = ends). [ ]: non-standard residue; d: D form. hPhe(3-Cl-4-CF3) = N[C@@H](CCc1ccc(C(F)(F)F)c(Cl)c1)C(=O)O; NPrPhe(4-CF3) = CCCN[C@@H](Cc1ccc(C(F)(F)F)cc1)C(=O)O; NMeGly(cPent) = CN[C@H](C(=O)O)C1CCCC1; Pro(4,4-F2) = O=C(O)[C@@H]1CC(F)(F)CN1; Hyp = O=C(O)[C@@H]1C[C@@H](O)CN1; NMeL = CN[C@@H](CC(C)C)C(=O)O; NMeA = CN[C@@H](C)C(=O)O; Ac5c = NC1(C(=O)O)CCCC1; Aze = O=C(O)[C@@H]1CCN1; Ac4c = NC1(C(=O)O)CCC1; NEtG = CCNCC(=O)O; Sar = CNCC(=O)O
Legend:
[1] = target: GDP-bound KRAS wild-type protein (Homo sapiens, UniProt P01116); experiment: Binding to KRAS by surface plasmon resonance (SPR), Single Cycle Kinetics; settings: SPR Single Cycle Kinetics, GDP-bound KRAS wild-type protein, 1:1 binding model; read-out: KRAS KD
GDP-bound KRAS wild-type protein, sequence (P01116 whole entry): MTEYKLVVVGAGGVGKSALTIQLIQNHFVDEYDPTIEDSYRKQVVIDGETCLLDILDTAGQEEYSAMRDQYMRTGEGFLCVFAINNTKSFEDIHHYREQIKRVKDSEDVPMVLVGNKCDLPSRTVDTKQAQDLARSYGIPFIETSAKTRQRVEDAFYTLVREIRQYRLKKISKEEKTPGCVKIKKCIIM

[2] = target: GDP-bound NRAS wild-type protein (Homo sapiens, UniProt P01111); experiment: Binding to NRAS by surface plasmon resonance (SPR), Single Cycle Kinetics; settings: SPR, GDP-bound NRAS wild-type protein vs GDP-bound KRAS wild-type protein
GDP-bound NRAS wild-type protein, sequence (P01111 whole entry): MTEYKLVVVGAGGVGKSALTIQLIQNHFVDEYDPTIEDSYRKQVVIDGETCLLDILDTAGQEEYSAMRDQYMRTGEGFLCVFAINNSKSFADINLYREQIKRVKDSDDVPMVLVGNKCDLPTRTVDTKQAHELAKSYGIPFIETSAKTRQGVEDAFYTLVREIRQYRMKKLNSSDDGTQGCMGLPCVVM

[3] = target: GDP-bound HRAS wild-type protein (Homo sapiens, UniProt P01112); experiment: Binding to HRAS by surface plasmon resonance (SPR), Single Cycle Kinetics; settings: SPR, GDP-bound HRAS wild-type protein vs GDP-bound KRAS wild-type protein
GDP-bound HRAS wild-type protein, sequence (P01112 whole entry): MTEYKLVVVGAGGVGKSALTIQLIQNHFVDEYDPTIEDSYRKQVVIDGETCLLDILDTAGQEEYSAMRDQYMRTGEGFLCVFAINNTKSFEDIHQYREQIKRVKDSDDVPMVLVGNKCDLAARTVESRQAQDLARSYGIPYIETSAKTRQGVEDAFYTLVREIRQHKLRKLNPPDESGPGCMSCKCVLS

| SMILES | Kd [1] | NRAS/KRAS (ratio of KD value for NRAS to KD value for KRAS) [2] | HRAS/KRAS (ratio of KD value for HRAS to KD value for KRAS) [3] |
| --- | --- | --- | --- |
| CCCN1C(=O)CN(C)C(=O)CN(CC)C(=O)[C@H]([C@@H](C)CC)NC(=O)[C@H](CC(C)C)N(C)C(=O)C[C@@H](C(=O)N(C)C)NC(=O)[C@H](C2CCCC2)N(C)C(=O)C2(CCC2)NC(=O)[C@@H]2C[C@@H](OCC)CN2C(=O)[C@H](CCc2ccc(C(F)(F)F)c(Cl)c2)NC(=O)CN(C)C(=O)[C@@H]1Cc1ccc(C(F)(F)F)cc1 [PP0372] ([NMeL]I[NEtG][Sar][NPrPhe(4-CF3)][Sar][hPhe(3-Cl-4-CF3)][Hyp](Et)[Ac4c][NMeGly(cPent)]D-NMe2; lactam N-11) | 0.79 nM | B (a compound having 3 or more and less than 10 is denoted as B) | B (a compound having 3 or more and less than 10 is denoted as B) |
| CCCN1C(=O)CN(C)C(=O)[C@@H]2CCN2C(=O)[C@H]([C@@H](C)CC)NC(=O)[C@H](CC(C)C)N(C)C(=O)C[C@@H](C(=O)N(C)C)NC(=O)[C@H](C2CCCC2)N(C)C(=O)C2(CCCC2)NC(=O)[C@@H]2CCCN2C(=O)[C@H](CCc2ccc(C(F)(F)F)c(Cl)c2)NC(=O)CN(C)C(=O)[C@@H]1Cc1ccc(C(F)(F)F)cc1 [PP0373] ([NMeL]I[Aze][Sar][NPrPhe(4-CF3)][Sar][hPhe(3-Cl-4-CF3)]P[Ac5c][NMeGly(cPent)]D-NMe2; lactam N-11) | 1.2 nM | B (a compound having 3 or more and less than 10 is denoted as B) | B (a compound having 3 or more and less than 10 is denoted as B) |
| CCCN1C(=O)CN(C)C(=O)[C@@H]2CCN2C(=O)[C@H]([C@@H](C)CC)NC(=O)[C@H](CC(C)C)N(C)C(=O)C[C@@H](C(=O)N(C)C)NC(=O)[C@H](C2CCCC2)N(C)C(=O)C2(CCC2)NC(=O)[C@@H]2CCCN2C(=O)[C@H](CCc2ccc(C(F)(F)F)c(Cl)c2)NC(=O)CN(C)C(=O)[C@@H]1Cc1ccc(C(F)(F)F)cc1 [PP0374] ([NMeL]I[Aze][Sar][NPrPhe(4-CF3)][Sar][hPhe(3-Cl-4-CF3)]P[Ac4c][NMeGly(cPent)]D-NMe2; lactam N-11) | 1.8 nM | B (a compound having 3 or more and less than 10 is denoted as B) | B (a compound having 3 or more and less than 10 is denoted as B) |
| CCCN1C(=O)CN(C)C(=O)[C@@H]2CCN2C(=O)[C@H]([C@@H](C)CC)NC(=O)[C@H](CC(C)C)N(C)C(=O)C[C@@H](C(=O)N(C)C)NC(=O)[C@H](C2CCCC2)N(C)C(=O)C2(CCCC2)NC(=O)[C@@H]2CC(F)(F)CN2C(=O)[C@H](CCc2ccc(C(F)(F)F)c(Cl)c2)NC(=O)CN(C)C(=O)[C@@H]1Cc1ccc(C(F)(F)F)cc1 [PP0375] ([NMeL]I[Aze][Sar][NPrPhe(4-CF3)][Sar][hPhe(3-Cl-4-CF3)][Pro(4,4-F2)][Ac5c][NMeGly(cPent)]D-NMe2; lactam N-11) | 2.3 nM | B (a compound having 3 or more and less than 10 is denoted as B) | B (a compound having 3 or more and less than 10 is denoted as B) |
| CCCN1C(=O)CN(C)C(=O)[C@@H]2CCN2C(=O)[C@H]([C@@H](C)CC)NC(=O)[C@H](CC(C)C)N(C)C(=O)C[C@@H](C(=O)N(C)C)NC(=O)[C@H](C2CCCC2)N(C)C(=O)C2(CCCC2)NC(=O)[C@@H]2C[C@@H](OCC)CN2C(=O)[C@H](CCc2ccc(C(F)(F)F)c(Cl)c2)NC(=O)CN(C)C(=O)[C@@H]1Cc1ccc(C(F)(F)F)cc1 [PP0377] ([NMeL]I[Aze][Sar][NPrPhe(4-CF3)][Sar][hPhe(3-Cl-4-CF3)][Hyp](Et)[Ac5c][NMeGly(cPent)]D-NMe2; lactam N-11) | 0.7 nM | B (a compound having 3 or more and less than 10 is denoted as B) | C (A compound having a KD ratio of 0.1 or more and less than 3 is denoted as C) |
| CCCN1C(=O)[C@@H]2CCN2C(=O)[C@H](C)N(C)C(=O)[C@H]([C@@H](C)CC)NC(=O)[C@H](CC(C)C)N(C)C(=O)C[C@@H](C(=O)N(C)C)NC(=O)[C@H](C2CCCC2)N(C)C(=O)C2(CCCC2)NC(=O)[C@@H]2CCCN2C(=O)[C@H](CCc2ccc(C(F)(F)F)c(Cl)c2)NC(=O)CN(C)C(=O)[C@@H]1Cc1ccc(C(F)(F)F)cc1 [PP0379] ([NMeL]I[NMeA][Aze][NPrPhe(4-CF3)][Sar][hPhe(3-Cl-4-CF3)]P[Ac5c][NMeGly(cPent)]D-NMe2; lactam N-11) | 0.38 nM | C (A compound having a KD ratio of 0.1 or more and less than 3 is denoted as C) | B (a compound having 3 or more and less than 10 is denoted as B) |
| CCCN1C(=O)[C@@H]2CCN2C(=O)[C@H](C)N(C)C(=O)[C@H]([C@@H](C)CC)NC(=O)[C@H](CC(C)C)N(C)C(=O)C[C@@H](C(=O)N(C)C)NC(=O)[C@H](C2CCCC2)N(C)C(=O)C2(CCC2)NC(=O)[C@@H]2CCCN2C(=O)[C@H](CCc2ccc(C(F)(F)F)c(Cl)c2)NC(=O)CN(C)C(=O)[C@@H]1Cc1ccc(C(F)(F)F)cc1 [PP0380] ([NMeL]I[NMeA][Aze][NPrPhe(4-CF3)][Sar][hPhe(3-Cl-4-CF3)]P[Ac4c][NMeGly(cPent)]D-NMe2; lactam N-11) | 0.59 nM | C (A compound having a KD ratio of 0.1 or more and less than 3 is denoted as C) | B (a compound having 3 or more and less than 10 is denoted as B) |
| CCCN1C(=O)[C@@H]2CCN2C(=O)[C@H](C)N(C)C(=O)[C@H]([C@@H](C)CC)NC(=O)[C@H](CC(C)C)N(C)C(=O)C[C@@H](C(=O)N(C)C)NC(=O)[C@H](C2CCCC2)N(C)C(=O)C2(CCCC2)NC(=O)[C@@H]2CC(F)(F)CN2C(=O)[C@H](CCc2ccc(C(F)(F)F)c(Cl)c2)NC(=O)CN(C)C(=O)[C@@H]1Cc1ccc(C(F)(F)F)cc1 [PP0381] ([NMeL]I[NMeA][Aze][NPrPhe(4-CF3)][Sar][hPhe(3-Cl-4-CF3)][Pro(4,4-F2)][Ac5c][NMeGly(cPent)]D-NMe2; lactam N-11) | 0.49 nM | C (A compound having a KD ratio of 0.1 or more and less than 3 is denoted as C) | B (a compound having 3 or more and less than 10 is denoted as B) |
| CCCN1C(=O)[C@@H]2CCN2C(=O)[C@H](C)N(C)C(=O)[C@H]([C@@H](C)CC)NC(=O)[C@H](CC(C)C)N(C)C(=O)C[C@@H](C(=O)N(C)C)NC(=O)[C@H](C2CCCC2)N(C)C(=O)C2(CCC2)NC(=O)[C@@H]2CC(F)(F)CN2C(=O)[C@H](CCc2ccc(C(F)(F)F)c(Cl)c2)NC(=O)CN(C)C(=O)[C@@H]1Cc1ccc(C(F)(F)F)cc1 [PP0382] ([NMeL]I[NMeA][Aze][NPrPhe(4-CF3)][Sar][hPhe(3-Cl-4-CF3)][Pro(4,4-F2)][Ac4c][NMeGly(cPent)]D-NMe2; lactam N-11) | 0.35 nM | C (A compound having a KD ratio of 0.1 or more and less than 3 is denoted as C) | B (a compound having 3 or more and less than 10 is denoted as B) |
| CCCN1C(=O)[C@@H]2CCN2C(=O)[C@H](C)N(C)C(=O)[C@H]([C@@H](C)CC)NC(=O)[C@H](CC(C)C)N(C)C(=O)C[C@@H](C(=O)N(C)C)NC(=O)[C@H](C2CCCC2)N(C)C(=O)C2(CCCC2)NC(=O)[C@@H]2C[C@@H](OCC)CN2C(=O)[C@H](CCc2ccc(C(F)(F)F)c(Cl)c2)NC(=O)CN(C)C(=O)[C@@H]1Cc1ccc(C(F)(F)F)cc1 [PP0383] ([NMeL]I[NMeA][Aze][NPrPhe(4-CF3)][Sar][hPhe(3-Cl-4-CF3)][Hyp](Et)[Ac5c][NMeGly(cPent)]D-NMe2; lactam N-11) | 0.24 nM | C (A compound having a KD ratio of 0.1 or more and less than 3 is denoted as C) | B (a compound having 3 or more and less than 10 is denoted as B) |
| CCCN1C(=O)[C@@H]2CCN2C(=O)[C@H](C)N(C)C(=O)[C@H]([C@@H](C)CC)NC(=O)[C@H](CC(C)C)N(C)C(=O)C[C@@H](C(=O)N(C)C)NC(=O)[C@H](C2CCCC2)N(C)C(=O)C2(CCC2)NC(=O)[C@@H]2C[C@@H](OCC)CN2C(=O)[C@H](CCc2ccc(C(F)(F)F)c(Cl)c2)NC(=O)CN(C)C(=O)[C@@H]1Cc1ccc(C(F)(F)F)cc1 [PP0384] ([NMeL]I[NMeA][Aze][NPrPhe(4-CF3)][Sar][hPhe(3-Cl-4-CF3)][Hyp](Et)[Ac4c][NMeGly(cPent)]D-NMe2; lactam N-11) | 0.18 nM | C (A compound having a KD ratio of 0.1 or more and less than 3 is denoted as C) | B (a compound having 3 or more and less than 10 is denoted as B) |
| CCCN1C(=O)[C@@H]2CCN2C(=O)CN(C)C(=O)[C@H]([C@@H](C)CC)NC(=O)[C@H](CC(C)C)N(C)C(=O)C[C@@H](C(=O)N(C)C)NC(=O)[C@H](C2CCCC2)N(C)C(=O)C2(CCC2)NC(=O)[C@@H]2CCCN2C(=O)[C@H](CCc2ccc(C(F)(F)F)c(Cl)c2)NC(=O)CN(C)C(=O)[C@@H]1Cc1ccc(C(F)(F)F)cc1 [PP0386] ([NMeL]I[Sar][Aze][NPrPhe(4-CF3)][Sar][hPhe(3-Cl-4-CF3)]P[Ac4c][NMeGly(cPent)]D-NMe2; lactam N-11) | 0.69 nM | C (A compound having a KD ratio of 0.1 or more and less than 3 is denoted as C) | B (a compound having 3 or more and less than 10 is denoted as B) |
